These results are taken from paper PMC11753601 (Angewandte Chemie (International Ed. in English), 2024).

pKd: −log10 of the molar value.

This assay concerns E-Box DNA. Format: binding. Particulars: pH 8.

“(AcATEENVKRRTHNVLERQRRNELKRSFFG)2K (sidechain bridge or staple) [MiniMYC 1]”: the “Binding to E-Box DNA in EMSA (in words)” value is recorded as “no binding”.
In the case of “(AcATEENVKRRTHNVLERQRRNELKRSSCFA)2-Linker (sidechain bridge or staple) [MiniMYC 3]”, the “Binding to E-Box DNA in EMSA (in words)” value is “did not show any specific association”.
With “(AcVKRRTHNVLERQRRNELKRSFFALRDQIPELENNEKAPKVVILKKATAYILSAβC)2-linker (sidechain bridge or staple) [DuoMYC 7]”, the pKd (read-out: KD for E-Box DNA measured by EMSA) is about 6.76.

As usually defined, the pKd is the negative decadic logarithm of the Kd, by convention in mol/L.
